By IC50 is commonly meant the concentration at which inhibition is half-maximal.

The source of these data is PMC7070731, “Cytotoxic Activity of Organotin(IV) Derivatives with Triazolopyrimidine Containing Exocyclic Oxygen Atoms” (Molecules, 2020).

In data set [1] the test system is HCT-116 (human colorectal carcinoma) cells. As to the kind of experiment: MTT cytotoxicity assay, HCT-116. Type of data set: cell-based. To be noted: for Influence on cell growth / viability, HCT-116: 24 h, 0.01–1 µM range; for IC50: 24 h treatment, read-out: IC50 (nM ± SD) HCT-116. The method, then:
(§1) HTC116 (human colorectal carcinoma), HepG2 (human hepatocellular carcinoma), MCF-7 (human breast cancer), 16-HBE (human bronchial epithelium) and Caco-2 (human colorectal carcinoma) cell lines were purchased from American Type Culture Collection, Rockville, MD, USA. All cell lines were grown in RPMI medium supplemented with L-glutamine (2 mM), 10% fetal bovine serum (FBS), penicillin (100 U/mL), streptomycin (100 µg/mL) and gentamicin (5 μg/mL). Cells were maintained in log phase by seeding twice a week at a density of 3 × 10^8 cells/L in humidified 5% CO2 atmosphere, at 37 °C. In all experiments, after plating, cells were allowed to adhere overnight and then treated with the compounds or vehicle alone (control cells), whereas Caco-2 cells were treated 15 days after confluence, at which time the cells are differentiated in normal intestinal-like cells. No differences were found between cells treated with DMSO 0.1% and untreated cells in terms of cell number and viability.
(§2) Cytotoxic activity of the organotin compounds against human tumor cell lines (HCT-116, HepG2 and MCF-7) and human normal cells (16-HBE and intestinal-like differentiated Caco2 cells) was determined using the MTT colorimetric assay based on the reduction of 3-(4,5-dimethyl-2-thiazolyl)bromide-2,5-diphenyl-2H-tetrazolium (MTT) to purple formazan using mitochondrial dehydrogenases of living cells, as reported. This method is commonly used to illustrate inhibition of cellular proliferation. Monolayer cultures were treated for 24 h with various concentrations (0.01-1 µM) of the drugs. Cisplatin was used for comparison. Briefly, all cell lines were seeded at 1.0 × 10^4 cells/well in 96-well plates containing 200 μL RPMI. When appropriated, cells were washed with fresh medium and incubated with the compounds in RPMI. After incubation, cells were washed, and 50 μL FBS-free medium containing 5 mg/mL MTT was added. The medium was discarded after a 2 h incubation at 37 °C by centrifugation, and formazan blue formed in the cells was dissolved in DMSO. The absorbance, measured at 570 nm in a microplate reader (Bio-RAD, Hercules, CA, USA) of MTT formazan of control cells was taken as 100% of viability. The growth inhibition activity of compounds was estimated by comparison with the not-treated control. The values for the inhibitory concentration for 50% of the tested compounds (IC50) were calculated using a sigmoidal model using GraphPad Prism 5.02 from GraphPad Software (San Diego, CA, USA). Each experiment was repeated three times in triplicate to obtain the mean values.
Background: Tetrazolium assays rely on reduction of a dye to a coloured formazan, in cell work by metabolically active cells.

Data set [2] relates to HepG2 (human hepatocellular cancer) cells. The data set can be described thus: MTT cytotoxicity assay, HepG2. Type of data set: cell-based. To be noted: for Influence on cell growth / viability, HepG2: 24 h, 0.01–1 µM range; for IC50: 24 h treatment, read-out: IC50 (nM ± SD) HepG2. The method, then: as §1, §2
For data set [3], the system named is MCF-7 (human breast cancer) cells. The data set can be described thus: MTT cytotoxicity assay, MCF-7. Type of data set: cell-based. To be noted: for Influence on cell growth / viability, MCF-7: 24 h, 0.01–1 µM range; for IC50: 24 h treatment, read-out: IC50 (nM ± SD) MCF-7. The method, then:
as §1, §2

In data set [4] the test system is HCT-116 cells. The data set can be described thus: Cell cycle analysis, propidium iodide flow cytometry. Type of data set: cell-based, human. To be noted: HCT-116, 24 h of treatment. The method, then: Cell cycle stage was analyzed using flow cytometry. Aliquots of 1.0 × 10^6 cells were harvested using centrifugation, washed with PBS and incubated in the dark in a PBS solution containing Triton X100 (0.1%, v/v), 20 μg/mL propidium iodide (PI) and 200 µg/mL RNase, for 30 min, at room temperature. Then, samples were immediately subjected to FACS analysis. At least 1 × 10^4 events were analyzed for each sample.
(In general: A flow cytometer gives signals particle by particle.)

Data set [5] concerns intestinal normal-like differentiated Caco-2 cells. The data set can be described thus: MTT viability assay, normal-like differentiated Caco-2 cells. To be noted: 24 h; for Effect on cell survival, normal-like differentiated Caco-2 cells: MTT, reduction seen in the 1–10 μM range; for CC50: differentiated Caco-2, MTT, concentration lethal to 50% of the normal cells, read-out: Normal-Like Intestinal Cells LC50. Type of data set: cell-based, human. The method, then: as §1
as §2, with “Monolayer cultures were treated for 24 h with various concentrations (0.01-1 µM) of the drugs.” left out
(§3) Formazan of control cells was taken as 100% viability and the 50% lethal concentrations of the synthesized complexes (LC50) were determined by plotting the graph of cell viability versus the concentrations. The selectivity index (SI) values were calculated for each compound by dividing the LC50 of normal differentiated Caco2 or 16-HBE cells by the IC50 of HCT-116 tumor cells. Each experiment was repeated three times in triplicate.

Data set [6] deals with human bronchial epithelial cells (16-HBE). As to the kind of experiment: MTT viability assay, 16-HBE cells. To be noted: 24 h; for Effect on cell survival, 16-HBE cells: reduction seen in the 1–10 μM range; for CC50: concentration lethal to 50% of the normal cells, read-out: 16-HBE Cells LC50. Type of data set: cell-based. The method, then:
as §1
as §2, with “Monolayer cultures were treated for 24 h with various concentrations (0.01-1 µM) of the drugs.” left out
as §3

For data set [7], the system named is HCT-116 cells. As to the kind of experiment: Intracellular ROS, DCFH-DA flow cytometry. Type of data set: cell-based, human. To be noted: 24 h, control 1.9%. The method, then:
ROS level was monitored by measuring fluorescence changes that resulted from intracellular oxidation of 2′,7′-dichlorofluorescin diacetate (DCFH-DA). DCFH-DA, at 10 μM final concentration, was added to the cell medium 30 min before the end of the treatment. The cells were collected using centrifugation for 5 min at 2000 rpm at 4 °C, washed, suspended in PBS and immediately subjected to FACS analysis. At least 1 × 10^4 cells were analyzed for each sample.

Data set [8] has as its system HCT-116 cells. As to the kind of experiment: Mitochondrial transmembrane potential, DiOC6 flow cytometry. Type of data set: cell-based, human. To be noted: 24 h, control 3.2%. The method, then: Mitochondrial transmembrane potentials (Δψm) were assessed using flow cytofluorometry, with the cationic lipophilic dye 3,3′-dihexyloxacarbocyanine iodide(3) (DiOC6) (Molecular Probes, Inc., Life Technologies Italia, Monza, Italy), which accumulates in the mitochondrial matrix. Changes in mitochondrial membrane potential are indicated by a reduction in the DiOC6-induced fluorescence intensity. After 24 h treatment, cells were incubated with DiOC6 at a 40 nmol/L final concentration, for 15 min at 37 °C. After centrifugation, cells were washed with phosphate buffer saline (PBS) and suspended in 500 μL PBS. Then, samples of 1.0 × 10^4 cells were subjected to FACS analysis.

The next data set has as its system p21^WAF1. As to the kind of experiment: Western blot, p21WAF1 level in HCT 116 cells. Type of data set: cell-based, human. To be noted: 24 h, immunoblotting. The method, then: (§4) After treatment with the compound, protein extracts were prepared and equal amounts of protein samples (80 μg/lane), subjected to SDS-PAGE, were transferred to nitrocellulose membrane as previously reported. The immunoblot was incubated overnight at 4 °C with blocking solution (5% skim milk), followed by incubation with anti-p21 (F-5, Cat No SC-6246 Santa Cruz Biotechnology) or anti-p53 (DO-1, Cat No SC-126, Santa Cruz Biotechnology) for 1 h at room temperature. Blots were washed two times with Tween 20/Tris-buffered saline (TTBS) and incubated with a 1:2000 dilution of horseradish peroxidase (HRP)-conjugated anti-IgG antibody (Dako Denmark, Glostrup, Denmark) for 1 h at room temperature. Blots were again washed five times with TTBS and then developed using enhanced chemiluminescence (Amersham Life Science, Arlington Heights, IL, USA.). Immunoreactions were also performed using β-actin antibody as loading controls.
On the technique in general: In western blotting, separated proteins are transferred to a membrane and probed.

The next data set deals with p53. As to the kind of experiment: Western blot, p53 level in HCT 116 cells. To be noted: 24 h, immunoblotting. Type of data set: cell-based, human. The method, then:
as §4

Turning to `[CH3][Sn]([CH3])([CH3])[O]c1ccn2ncnc2n1` [Compound 1, Me3Sn(5tpO)], in data set [1], the “Influence on cell growth / viability, HCT-116” value is listed as “no influence on cell growth” and the half-maximal inhibitory concentration (IC50) was more than 1000 nM. For the same compound, in [2], the “Influence on cell growth / viability, HepG2” value is on record as “no influence on cell growth” and the IC50 was more than 1000 nM. In data set [3], the “Influence on cell growth / viability, MCF-7” value is on record as “no influence on cell growth” and the IC50 is more than 1000 nM.

As for `Cc1cc([O][Sn]([CH3])([CH3])[CH3])n2ncnc2n1` [Compound 3, Me3Sn(mtpO)], in data set [1], the “Influence on cell growth / viability, HCT-116” value was “no influence on cell growth” and the half-maximal inhibitory concentration (IC50) is more than 1000 nM. Besides, in data set [2], the “Influence on cell growth / viability, HepG2” value is “no influence on cell growth” and the IC50 was more than 1000 nM. In data set [3], the “Influence on cell growth / viability, MCF-7” value is on record as “no influence on cell growth” and the IC50 is more than 1000 nM.

With Ph3Sn(HtpO2) [Compound 6], the “Effect on cell cycle distribution” value with HCT-116 cells [4] is given as “cell cycle arrest in phase G2/M”. Also, in data set [5], the “Effect on cell survival, normal-like differentiated Caco-2 cells” value was “did not affect the cell viability at any assayed concentration”. The results for the IC50 in data set [1], in [2] and in data set [3] were 60 ± 5 nM, 63 ± 5 nM and 102 ± 9 nM, respectively. The “Effect on cell survival, 16-HBE cells” value in [6] is “did not affect the cell viability at any assayed concentration”. Besides, the “AY, ROS production (DCFH-DA fluorescent cells)” value (“AY, ROS production” below) in the data set with HCT-116 cells [7] (0.1 μM) was 25.3%. Moreover, the “Cells with dissipated mitochondrial membrane potential” value in the data set with HCT-116 cells [8] (0.1 μM) is 25.1%.

Turning to `CCC[CH2][Sn]([CH2]CCC)([CH2]CCC)[O]c1cc(C)nc2ncnn12` [Compound 4, n-Bu3Sn(mtpO)], in the data set with HCT-116 cells [4], the “Effect on cell cycle distribution” value was “block of cell duplication in the G0/G1 phase”. Also, the “Effect on cell survival, normal-like differentiated Caco-2 cells” value in [5] is “reduction of the cell survival”. Further, the CC50 in data set [5] worked out at 5 ± 0.4 µM; in data set [6], 11 ± 1 µM. The “Effect on level of p21” value in the data set with p21^WAF1 was “did not vary”. Also, the IC50 in data set [1] is 34 ± 3 nM; in data set [2] it was 53 ± 6 nM; in data set [3], 118 ± 10 nM. The “Effect on cell survival, 16-HBE cells” value in data set [6] is reported as “reduction of the cell survival”. The “AY, ROS production” value in the data set with HCT-116 cells [7] (0.1 μM) is listed as 27.3%. Further, the “Effect on level of p53” value with p53 was “did not vary”. Further, the “Cells with dissipated mitochondrial membrane potential” value in the data set with HCT-116 cells [8] (0.1 μM) worked out at 28.5%.

In the case of n-Bu3Sn(HtpO2) [Compound 5], in the data set on HCT-116 cells [4], the “Effect on cell cycle distribution” value was “block of cell duplication in the G0/G1 phase”. Besides, the “Effect on cell survival, normal-like differentiated Caco-2 cells” value in [5] was “reduction of the cell survival”. Besides, the CC50 in data set [5] amounted to 12 ± 1 µM; in [6], 22 ± 1 µM. Also, the “Effect on level of p21” value with p21^WAF1 is listed as “did not vary”. The IC50 in data set [1] came to 101 ± 11 nM; in data set [2], 117 ± 10 nM; in [3], 487 ± 47 nM. Moreover, the “Effect on cell survival, 16-HBE cells” value in data set [6] is “reduction of the cell survival”. For the same compound, the “AY, ROS production” value with HCT-116 cells [7] (0.1 μM) was 20.2%. For the same compound, in the data set on p53, the “Effect on level of p53” value was “did not vary”. Besides, the “Cells with dissipated mitochondrial membrane potential” value with HCT-116 cells [8] (0.1 μM) was found to be 18.3%.

As for `N.N.[Cl][Pt][Cl]` [Cisplatin, reference compound], the results for the IC50 in data set [1], in [2] and in [3] were 46000 nM, 65000 nM and 10000 nM, respectively. Moreover, the “AY, ROS production” value with HCT-116 cells [7] (20 μM) is 23.5%. For the same compound, in the data set with HCT-116 cells [8] (20 μM), the “Cells with dissipated mitochondrial membrane potential” value was found to be 17.4%.

Regarding `CCC[CH2][Sn]([CH2]CCC)([CH2]CCC)[O]c1ccn2ncnc2n1` [Compound 2, n-Bu3Sn(5tpO)], the “Effect on cell cycle distribution” value with HCT-116 cells [4] is listed as “block of cell duplication in the G0/G1 phase”. In addition, the “Effect on cell survival, normal-like differentiated Caco-2 cells” value in [5] is recorded as “reduction of the cell survival”. In addition, the CC50 in [5] is 6 ± 0.4 µM; in data set [6] it was 17 ± 1 µM. For the same compound, the “Effect on level of p21” value in the data set on p21^WAF1 is reported as “did not vary”. Further, the half-inhibitory concentration (IC50) in data set [1] was 70 ± 8 nM; in data set [2], 70 ± 6 nM; in [3], 233 ± 21 nM. Besides, the “Effect on cell survival, 16-HBE cells” value in data set [6] is “reduction of the cell survival”. Also, in the data set on HCT-116 cells [7] (0.1 μM), the “AY, ROS production” value is recorded as 22.5%. The “Effect on level of p53” value in the data set with p53 is on record as “did not vary”. In the data set on HCT-116 cells [8] (0.1 μM), the “Cells with dissipated mitochondrial membrane potential” value worked out at 23.5%.
